The values below come from patent publication US20020127208A1, “Method of transplantation using chemotherapy-treated allogeneic cells that enhance immune responses without graft versus host disease” (priority 2000, published 2002).

Data set [1] has as its system MCMV. As to the kind of experiment: Adoptive immunotherapy against MCMV lethality, 30x10^6 MCMV-immune lymphocytes, B/6 to F1 BMT. It is filed as in vivo, mouse. Conditions: 30×10^6 immune lymphocytes; 2×10^4 PFU MCMV; P<0.001.
Excerpt: Spleens were removed from either untreated PepBoy mice (naive donors), or those that had been inoculated with 10^5-10^6 PFU MCMV 2-4 months earlier (immune donors). Polyclonal splenocytes were harvested by perfusing spleens with sterile HBSS/FBS. […]
Data set [2] relates to lethally irradiated B10.BR (H2k) recipient mice. As to the kind of experiment: MHC mis-matched C57.BL6 to B10.BR transplant model: survival, GvHD (weight), donor engraftment. It is filed as in vivo, mouse. As to conditions: splenocytes treated with 20 μg/ml vs control or other doses (0, 3, 10, 40 μg/ml).
Excerpt: Lethally irradiated (11 Gy) B10.BR (H2^k) recipient mice were transplanted with 1×10^6 BL6 (H2^b) TCD-BM cells (n=40, thin line). […] Survival and weight change data are derived from 2-6 individual experiments using 5 or 10 animals per group. Kaplan-Meier survival determinations are shown in A (ticks indicate time points at which individual experiments were terminated). Trend lines representing the mean weight change (percent body weight) for each group are shown in B. Trend lines were calculated using a moving average with a periodicity of 3.
1×10^6 TCD-BM cells and splenocytes from BL6 strains having different Thy1.1 or Thy1.2 isotypes were administered to lethally irradiated B10.BR mice. […] Donor splenocyte derived CD4+ (gray bars) and CD8+ (black bars) were quantified in the peripheral blood of recipient mice 2-4 months post-transplant.
B10.BR recipients were lethally irradiated and transplanted with 1×10^6 TCD-BM from CD45.1+ C57.BL6 donors. […] The fraction of blood T-cells derived from recipient, donor BM, and donor spleen were determined at day +27 post-transplant, using markers for T-cells (CD3), recipient-type cells (H2^k), donor-type cells (H2^b), and CD45.1/CD45.2 isoforms.
Recipient mice were irradiated 1 day prior to transplant using a ^137CS source at a rate of 1.24 Gy/min. […] The mice were monitored daily for survival; moribund animals were euthanized. […]
In data set [3] the test system is splenocytes. As to the kind of experiment: Splenocyte viability in 24 hour culture.
Description: Splenocytes were harvested by perfusing spleens with sterile HBSS/FBS, and washed before culture. Splenocytes (10×10^6 cells/ml) were incubated in complete media (RPMI supplemented with 10% heat-inactivated FBS, 50 μM 2-mercaptoethanol, 100 Units/ml penicillin, 100 ug/ml streptomycin, 292 μg/ml L-glutamine, 1 mM sodium pyruvate, and non-essential amino acids added according to the manufacturer's specifications (Biowhittaker, Walkersville, Md.)). […] Overall viability was assessed by counting ethidium bromide/acridine orange stained cells under fluorescence microscopy. Survival of T-cell populations was determined by flow cytometric analyses using fluorochrome conjugated antibodies against mouse CD3, CD4 and CD8. Propidium iodide stain was used to exclude dead cells from the analysis.
The data represent the mean ±SEM for 4 individual experiments.
The subject of data set [4] is alloreactive T-cells. As to the kind of experiment: Limiting dilution assay of alloreactive cell frequency. Conditions: 20 μg/ml, B10.BR responders stimulated with C57.BL6.
Description: Limiting dilution assay of B10.BR responder cells stimulated with C57.BL6.
The frequency of alloreactive cells was measured using a limiting dilution assay . Briefly, 20,000 responder cells were three-fold serially diluted in 96-well plates with 12 replicate wells per dilution. 10,000 stimulator cells were added to each well in a combined total volume of 150 μl complete media. After 7 days in co-culture, the proliferation of responder cells was measured using tritiated thymidine incorporation. The number of responder cells was plotted versus the natural logarithm of the percentage of negative wells (i.e., wells with cpm readings lesser than media control). The reciprocal of the slope of the regression line yielded the frequency of alloreactive T-cells.
In data set [5] the test system is MCMV. As to the kind of experiment: Adoptive immunotherapy against MCMV lethality, 10x10^6 lymphocytes, B/6 to F1 BMT. Format: in vivo, mouse. Conditions: day +120 post-BMT, MCMV infected; for % survival, immune splenocytes / Survivors/Total, immune splenocytes: 10×10^6 MCMV-immune lymphocytes; for % survival, naive splenocytes / Survivors/Total, naive splenocytes: 10×10^6 naive lymphocytes. The protocol:
Spleens were removed from either untreated PepBoy mice (naive donors), or those that had been inoculated with 10^5-10^6 PFU MCMV 2-4 months earlier (immune donors).
To generate irradiated splenocytes for adoptive immunotherapy, cells were harvested after 24 hour culture and exposed to a single fraction of radiation from a ^137Cs source for a total of 7.5 Gy. S-59 psoralen (Cerus Corporation, Concord, Calif.) was added to some splenocytes cultures at the end of the 24 hour culture period at a final concentration of 2 nM. The cells in a T75 tissue culture flask were then placed on a UVA (320-400 nm) illumination device with a nominal fluorescence of 7 mW (Cole Parmer, Vernon Hill, Ill.) and illuminated for 5 mins to achieve 3.0 J/cm^2 equivalent UVA dose. Control (untreated) splenocytes were harvested after 24 hour culture without other interventions. For all four groups, lymphocytes were washed at the end of the culture/treatment period and the appropriate dosage of viable cells was used for adoptive immunotherapy.
One day prior to transplant, recipient F1 mice were conditioned using a ^137Cs source at a dose rate of 1.24 Gy/min. Two doses of 5.5 Gy were administered, 3 hours apart, for a total lethal dose of 11 Gy. Irradiated mice were given free access to drinking water containing oral antibiotics (1.1 mg/ml neomycin sulfate and 1000 U/ml polymyxin sulfate; Sigma, St. Louis, Mo.) starting 3 days prior to irradiation and continuing through the end of the experimental period. 5×10^6 T-cell depleted (TCD) BM cells in a total volume of 0.2 ml HBSS/FBS were injected into the tail vein of F1 mice on the day following irradiation. In adoptive immunotherapy experiments, the appropriate number of donor splenocytes were mixed with TCD BM cells and injected simultaneously in 0.2 ml total volume. Two hours after BMT, mice were injected intraperitoneally with appropriate MCMV inocula diluted in DMEM/CS. Control (uninfected) mice received DMEM/CS alone. Mice were evaluated daily for morbidity and mortality. The development of clinical GvHD was prospectively monitored by weighing mice twice weekly, as well as observing for alopecia and/or ruffled fur, diarrhea, and decreased activity with a “hunched over” appearance. Moribund mice were euthanized based on Emory IACUC end-points and protocols.
Lymphocytes were prepared from the spleens of naïve or MCMV-immune B/6 donors and 10×10^6 or 30×10^6 were infused IV at the time of B/6→F1 allogeneic BMT. […] Some groups of mice were subsequently infected with 2×10^4 PFU MCMV at two hours after BMT, a viral inoculum expected to produce 90-100% lethality (FIG. 8B).
Table 2: Effect of adoptive immunotherapy on the survival of B/6→F1 BMT mice following MCMV infection. At the time of BMT, mice were infused with 10×10^6 splenic lymphocytes from B/6 mice that were either previously-infected with MCMV (“Immune splenocytes”) or uninfected (“Naive splenocytes”). […] Some mice received lymphocytes that were untreated. The table lists the number of surviving mice (at day +120 post-BMT) and the total number of mice in each group, as well as the percentage survival.

Data set [6] relates to responder splenocytes. As to the kind of experiment: Proliferative response to allo-antigen (MLR) and mitogen, thymidine incorporation. It is filed as cell-based, mouse. As to conditions: prior exposure to 20 μg/ml for 24 hours, vs control. The text has this:
A. Fludarabine attenuates the proliferative response of spleen cells to allogeneic stimulation (MLR) or mitogenic stimulation (con A). […] Strain combinations of DBA versus BL6 and BL6 versus DBA were used in the MLR experiments. CPM is expressed as percent of non-treated control.
4×10^6 cells/ml responder cells (either B10.BR, DBA/2, or Balb/c) were co-cultured with 2×10^6 irradiated (25 Gy) stimulator cells/ml (C57.BL6) in complete media with 10 U/ml IL-2 (Chiron Corporation, Emeryville, Calif.) and 10 ng/ml IL-7 (PeproTech Inc., Rocky Hill, N.J.) in 96 well plates. Proliferation was monitored by measuring DNA synthesis/thymidine incorporation. Cultures were pulsed with 1 uCi/well of tritiated thymidine (NEN Life Sciences, Boston, Mass.) on day 6, harvested onto filtermats using a Tomtec Harvester (Hamden, Conn.) on day 7, and read on MicroBeta TriLux counter (PerkinElmer, Inc., Gaithersburg, Md.).
A general note: Uptake of a labelled nucleoside into DNA is a usual measure of proliferation.

In data set [7] the test system is B/6 to F1 BMT mice. As to the kind of experiment: Lethality (GvHD) of 30x10^6 transferred lymphocytes without MCMV infection. Format: in vivo, mouse. As to conditions: 30×10^6 lymphocytes; n=20. The text has this:
FIGS. 9A-C. Adoptive immunotherapy to prevent MCMV lethality. Conditioned F1 recipients were infused with 5×10^6 TCD BM cells from B/6 donors. Some groups also received simultaneous infusions of 30×10^6 unselected splenocytes from B/6 donors previously infected with MCMV (immune). […] Following transplantation, mice were either infected with 2×10^4 PFU MCMV (A), or vehicle (B). Data from two separate experiments (n=20 mice per group) were combined for display and analysis. […] Survival was not improved when mice were infused with cultured (untreated) splenocytes (P>0.05). […]
To generate irradiated splenocytes for adoptive immunotherapy, cells were harvested after 24 hour culture and exposed to a single fraction of radiation from a ^137Cs source for a total of 7.5 Gy. […] The cells in a T75 tissue culture flask were then placed on a UVA (320-400 nm) illumination device with a nominal fluorescence of 7 mW (Cole Parmer, Vernon Hill, Ill.) and illuminated for 5 mins to achieve 3.0 J/cm^2 equivalent UVA dose. […]
One day prior to transplant, recipient F1 mice were conditioned using a ^137Cs source at a dose rate of 1.24 Gy/min. […] Mice were evaluated daily for morbidity and mortality. The development of clinical GvHD was prospectively monitored by weighing mice twice weekly, as well as observing for alopecia and/or ruffled fur, diarrhea, and decreased activity with a “hunched over” appearance. […]

Data set [8] has as its system liver of B/6 to F1 BMT mice. As to the kind of experiment: Histologic assessment of hepatic inflammation (GvHD) and MCMV inclusions. Format: in vivo, mouse. Conditions: day +14. The text has this:
FIGS. 11A-H. S-59/UVA-treated lymphocytes decrease hepatic MCMV infection without producing GvHD. […] Some mice were infected with 5×10^4 PFU MCMV (B, D, F, G), while others were uninfected (A, C, E). At day +14, livers were harvested from surviving mice and prepared for histologic examination. […] Numerous typical cytomegalic inclusions can be appreciated in a higher power photomicrograph (G). […] In contrast, mice infused with S-59/UVA lymphocytes had normal-appearing hepatic architecture with minimal detectable inflammation whether they were infected (F) or not (E).
Mice were euthanized, and segments of liver were immersion-fixed in 10% formalin, embedded in paraffin, cut in 8 μm sections, and stained with hematoxylin and eosin. […] Typical eosinophilic intranuclear cytomegalic inclusion bodies were counted in 10 contiguous high-power fields (hpf) on each section as a marker of viral replication. […] The results were decoded, tabulated, and analyzed by another co-author (J.R.).
A sample of liver was also prepared for microscopic quantitation of MCMV-infected cells and hepatic inflammation. A trained anatomic pathologist (D.J.), blinded to sample identity, scored the sections for MCMV inclusions and hepatic portal inflammation. Representative photomicrographs are shown in FIGS. 11(A-G) and quantitative data analysis in FIG. 11H. […]

Setting [9] is: 20 μg/ml fludarabine, 24 hour culture, % compared to starting cell no., mean ± SEM, 4 experiments.

Turning to “9-beta-D-arabinosyl-2-fluoroadenine [Fludarabine]”, the “Survival compared to mice that did not receive adoptive immunotherapy” value in data set [1] is “significantly improved survival”. Besides, in data set [2], the “40 day survival rate, pilot allogeneic transplant experiments” value is reported as “most favorable”. Further, in data set [3] (setting [9]), the “Splenocyte viability, CD4+ T-cells” value is reported as 69.0 ± 9.9%; the “Splenocyte viability, CD8+ T-cells” value was 62.1 ± 12.9%; the “Splenocyte viability, all leukocytes” value is 41.6 ± 7.8%; the “Splenocyte viability, non T-cells” value turned out to be 33.6 ± 6.4%. Also, in data set [3] (20 μg/ml fludarabine, 24 hour culture, % compared to starting cell no., mean ± SEM, 4 experiments, listed as fludarabine), the “Splenocyte viability, all leukocytes” value is recorded as “approximately 42%”. Further, the “T-cell viability after fludarabine culture” value in data set [3] (20 μg/ml, 24 hr) is listed as 60-70%. The “Viability of predominantly CD8+ cultured CTL's” value in data set [3] (activated, allo-stimulated CTL's, in contrast to naive spleen cells) is listed as “not affected”. Further, in data set [4], the “Decrease in the frequency of allo-reactive T-cells” value is on record as 66%. Besides, the “Frequency of alloreactive cells in fludarabine treated culture” value in data set [4] (untreated culture 1/205) is 1/621. Further, in data set [5], the “% survival, immune splenocytes” value is recorded as 71%; the “Survivors/Total, immune splenocytes” value is reported as 24/34; the “% survival, naive splenocytes” value was determined as 23%; the “Survivors/Total, naive splenocytes” value is given as 8/35. In data set [6] (10 μg/ml con A), the “Decrease of proliferative response to concanavalin A” value was determined as 37%. Further, the “Reduction of thymidine incorporation after stimulation with allogeneic antigen (MLR)” value in data set [6] (7-day MLR) is 62%.
`Cc1oc2c(C)c3oc(=O)cc(C)c3cc2c1COCCN` [S-59]: the “Mice that died without MCMV infection” value in data set [7] was “none”. Also, the “Survival compared to mice that did not receive adoptive immunotherapy” value in data set [1] was “significantly improved survival”. For the same molecule, in data set [8] (MCMV infected), the “Portal inflammation score (scale 1-5)” value came out at 3.0. The “Portal inflammation score (scale 1-5)” value in data set [8] (not MCMV infected) was 2.3. In data set [5], the “% survival, immune splenocytes” value is on record as 90%; the “Survivors/Total, immune splenocytes” value was 9/10; the “% survival, naive splenocytes” value came out at 30%; the “Survivors/Total, naive splenocytes” value was 3/10.
